# Reference: patent US20050009889A1 (priority 2002, published 2005)
# Marks after values point to notes of the source that are not given here.
# Columns and labels:
# Type in all cases: in vivo
# grape downy mildew = experiment: Curative utility, in addition to the Tests of Table A; settings: especially for grape downy mildew
# Plasmopara viticola [1] = experiment: Test G: curative control of grape downy mildew on grape seedlings; settings: grape seedlings, curative; 100 ppm (footnote *)
# Description: (§1) General protocol for preparing test suspensions: Test compounds are first dissolved in acetone in an amount equal to 3% of the final volume and then suspended at the desired concentration (in ppm) in acetone and purified water (50/50 mix) containing 250 ppm of the surfactant Trem® 014 (polyhydric alcohol esters). The resulting test suspensions are then used in the following tests. Spraying a 200 ppm test suspension to the point of run-off on the test plants is the equivalent of a rate of 500 g/ha.
# Grape seedlings are inoculated with a spore suspension of Plasmopara viticola (the casual agent of grape downy mildew) and incubated in a saturated atmosphere at 20° C. for 24 h. The next day, test suspension is sprayed to the point of run-off and the treated plants are moved to a growth chamber at 20° C. for 6 days, and then incubated in a saturated atmosphere at 20° C. for 24 h, after which disease ratings are made.
# Plasmopara viticola [2] = experiment: Test E: preventive control of grape downy mildew on grape seedlings; settings: grape seedlings sprayed to run-off, inoculated next day; concentration not given
# Description: as §1
# The test suspension was sprayed to the point of run-off on grape seedlings. The following day the seedlings were inoculated with a spore suspension of Plasmopara viticola (the causal agent of grape downy mildew) and incubated in a saturated atmosphere at 20° C. for 24 h, moved to a growth chamber at 20° C. for 6 days, and then incubated in a saturated atmosphere at 20° C. for 24 h, after which disease ratings were made.
# Puccinia recondita = experiment: Test B: preventive control of wheat leaf rust on wheat seedlings; settings: wheat seedlings sprayed to run-off, inoculated next day; concentration not given
# Description: as §1
# The test suspension was sprayed to the point of run-off on wheat seedlings. The following day the seedlings were inoculated with a spore suspension of Puccinia recondita (the causal agent of wheat leaf rust) and incubated in a saturated atmosphere at 20° C. for 24 h, and then moved to a growth chamber at 20° C. for 6 days, after which disease ratings were made.
# Phytophthora infestans [3] = settings: tomato seedlings sprayed to run-off, inoculated next day; concentration not given
# Pyricularia oryzae = settings: rice seedlings sprayed to run-off, inoculated next day; concentration not given
# [4] = test system: Erysiphe graminis f. sp. tritici; experiment: Test A: preventive control of wheat powdery mildew on wheat seedlings; settings: wheat seedlings sprayed to run-off, inoculated next day, rated after 7 days; concentration not given
# Description: as §1
# The test suspension was sprayed to the point of run-off on wheat seedlings. The following day the seedlings were inoculated with a spore dust of Erysiphe graminis f. sp. tritici, (the causal agent of wheat powdery mildew) and incubated in a growth chamber at 20° C. for 7 days, after which disease ratings were made.
# Phytophthora infestans [5] = settings: curative; 100 ppm on potato seedlings
Compound,curative utility (grape downy mildew),"Test G disease control rating (100 = 100% disease control, 0 = no control) (Plasmopara viticola [1])","Test E disease control rating (100 = 100% disease control, 0 = no control) (Plasmopara viticola [2]) [%]","Test B disease control rating (100 = 100% disease control, 0 = no control) (Puccinia recondita) [%]","Test D disease control rating (100 = 100% disease control, 0 = no control) (Phytophthora infestans [3]) [%]","Test C disease control rating (100 = 100% disease control, 0 = no control) (Pyricularia oryzae) [%]","Test A disease control rating (100 = 100% disease control, 0 = no control) [4] [%]","Test F disease control rating (100 = 100% disease control, 0 = no control) (Phytophthora infestans [5])"
"2,4-Dichloro-N-[[3-chloro-5-(trifluoromethyl)-2-pyridinyl]methyl]-3-pyridinecarboxamide [Compound 19]",significant curative utility,37* %,100,35,100,0,0,97# %
Cc1cnc(Cl)c(C(=O)NCc2ncc(C(F)(F)F)cc2Cl)c1Cl [Compound 20],significant curative utility,100* %,100,54,100,0,0,24# %
